{
  "source": "ChEMBL document CHEMBL1152211",
  "about": "“Structure-activity study at positions 3 and 4 of human neuropeptide S” (Bioorg Med Chem, 2008)",
  "key": {"Neuropeptide S receptor": {"target": "T1, Neuropeptide S receptor (Mus musculus, UniProt Q8BZP8)", "T1 sequence (Q8BZP8 whole entry)": "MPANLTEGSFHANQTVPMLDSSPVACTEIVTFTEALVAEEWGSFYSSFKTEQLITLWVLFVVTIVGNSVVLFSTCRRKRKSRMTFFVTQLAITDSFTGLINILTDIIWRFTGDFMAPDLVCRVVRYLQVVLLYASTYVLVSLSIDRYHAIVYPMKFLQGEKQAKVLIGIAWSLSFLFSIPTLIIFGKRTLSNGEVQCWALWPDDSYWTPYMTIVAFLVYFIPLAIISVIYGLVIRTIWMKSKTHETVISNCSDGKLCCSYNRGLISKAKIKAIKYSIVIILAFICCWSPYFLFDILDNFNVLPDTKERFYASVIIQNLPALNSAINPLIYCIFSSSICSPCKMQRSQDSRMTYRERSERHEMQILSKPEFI", "assay": "Agonist activity at mouse NPSR expressed in HEK293 cells assessed as increase in intracellular calcium mobilization by FLIPR", "assay_type": "functional, cell-based"}, "[1]": {"target": "T2, Neuropeptide S receptor (Mus musculus) (UniProt Q8BZP8)", "T2 sequence (whole entry)": "T1 sequence (Q8BZP8 whole entry)", "assay": "Agonist activity at mouse NPSR expressed in HEK293 cells assessed as increase in intracellular calcium mobilization by FLIPR relative to baseline", "assay_type": "functional, cell-based"}},
  "note": "Counter-ions that a name gives are not always drawn. Non-standard residues stand in square brackets, D forms with d. Residues, ends and D or L forms follow the SMILES beside them. *: point of attachment. Arg(NO2) = N=C(NCCC[C@H](N)C(=O)O)N[N+](=O)[O-]; hArg = N=C(N)NCCCC[C@H](N)C(=O)O; Orn = NCCC[C@H](N)C(=O)O; Dab = NCC[C@H](N)C(=O)O; Abu = CC[C@H](N)C(=O)O; Dap = NC[C@H](N)C(=O)O; Tfa = O=C(C(F)(F)F)*",
  "data": [
    {"compound": "CSCC[C@H](NC(=O)CNC(=O)[C@@H](NC(=O)CNC(=O)[C@@H](NC(=O)CNC(=O)[C@H](CC(N)=O)NC(=O)[C@H](CCCN)NC(=O)[C@H](Cc1ccccc1)NC(=O)[C@@H](N)CO)C(C)C)[C@@H](C)O)C(=O)N[C@@H](CCCCN)C(=O)N[C@@H](CCCCN)C(=O)N[C@H](C(=O)N[C@@H](CO)C(=O)N[C@@H](Cc1ccccc1)C(=O)N[C@@H](CCC(N)=O)C(=O)N[C@@H](CCCNC(=N)N)C(=O)N[C@@H](C)C(=O)N[C@@H](CCCCN)C(=O)N[C@@H](CO)C(=O)O)[C@@H](C)O", "note": "(H-SF[Orn]NGVGTGMKKTSFQRAKS-OH)", "values": [
      {"measurement": "EC50", "setting": "Neuropeptide S receptor", "value": 31.6, "unit": "nM"},
      {"measurement": "Emax", "setting": "[1]", "value": 318, "unit": "%"}
    ]},
    {"compound": "H-SFHNGVGTGMKKTSFQRAKS-OH", "values": [
      {"measurement": "EC50", "setting": "Neuropeptide S receptor", "value": 1550, "unit": "nM"},
      {"measurement": "Emax", "setting": "[1]", "value": 273, "unit": "%"}
    ]},
    {"compound": "H-SFQNGVGTGMKKTSFQRAKS-OH", "values": [
      {"measurement": "EC50", "setting": "Neuropeptide S receptor", "value": 129, "unit": "nM"},
      {"measurement": "Emax", "setting": "[1]", "value": 295, "unit": "%"}
    ]},
    {"compound": "CSCC[C@H](NC(=O)CNC(=O)[C@@H](NC(=O)CNC(=O)[C@@H](NC(=O)CNC(=O)[C@H](CC(N)=O)NC(=O)[C@H](CCN)NC(=O)[C@H](Cc1ccccc1)NC(=O)[C@@H](N)CO)C(C)C)[C@@H](C)O)C(=O)N[C@@H](CCCCN)C(=O)N[C@@H](CCCCN)C(=O)N[C@H](C(=O)N[C@@H](CO)C(=O)N[C@@H](Cc1ccccc1)C(=O)N[C@@H](CCC(N)=O)C(=O)N[C@@H](CCCNC(=N)N)C(=O)N[C@@H](C)C(=O)N[C@@H](CCCCN)C(=O)N[C@@H](CO)C(=O)O)[C@@H](C)O", "note": "(H-SF[Dab]NGVGTGMKKTSFQRAKS-OH)", "values": [
      {"measurement": "EC50", "setting": "Neuropeptide S receptor", "value": 204, "unit": "nM"},
      {"measurement": "Emax", "setting": "[1]", "value": 207, "unit": "%"}
    ]},
    {"compound": "H-SFKNGVGTGMKKTSFQRAKS-OH", "values": [
      {"measurement": "EC50", "setting": "Neuropeptide S receptor", "value": 18.2, "unit": "nM"},
      {"measurement": "Emax", "setting": "[1]", "value": 290, "unit": "%"}
    ]},
    {"compound": "H-SFRQGVGTGMKKTSFQRAKS-OH", "values": [
      {"measurement": "EC50", "setting": "Neuropeptide S receptor", "value": 562, "unit": "nM"},
      {"measurement": "Emax", "setting": "[1]", "value": 210, "unit": "%"}
    ]},
    {"compound": "CSCC[C@H](NC(=O)CNC(=O)[C@@H](NC(=O)CNC(=O)[C@@H](NC(=O)CNC(=O)[C@H](CC(N)=O)NC(=O)[C@H](CCCCNC(=N)N)NC(=O)[C@H](Cc1ccccc1)NC(=O)[C@@H](N)CO)C(C)C)[C@@H](C)O)C(=O)N[C@@H](CCCCN)C(=O)N[C@@H](CCCCN)C(=O)N[C@H](C(=O)N[C@@H](CO)C(=O)N[C@@H](Cc1ccccc1)C(=O)N[C@@H](CCC(N)=O)C(=O)N[C@@H](CCCNC(=N)N)C(=O)N[C@@H](C)C(=O)N[C@@H](CCCCN)C(=O)N[C@@H](CO)C(=O)O)[C@@H](C)O", "note": "(H-SF[hArg]NGVGTGMKKTSFQRAKS-OH)", "values": [
      {"measurement": "EC50", "setting": "Neuropeptide S receptor", "value": 10.7, "unit": "nM"},
      {"measurement": "Emax", "setting": "[1]", "value": 288, "unit": "%"}
    ]},
    {"compound": "H-SFGNGVGTGMKKTSFQRAKS-OH", "values": [
      {"measurement": "EC50", "setting": "Neuropeptide S receptor", "value": 1260, "unit": "nM"},
      {"measurement": "Emax", "setting": "[1]", "value": 264, "unit": "%"}
    ]},
    {"compound": "H-SFRNGVGTGMKKTSFQRAKS-OH [NEUROPEPTIDE S]", "values": [
      {"measurement": "EC50", "setting": "Neuropeptide S receptor", "value": 12, "unit": "nM"},
      {"measurement": "Emax", "setting": "[1]", "value": 234, "unit": "%"}
    ]},
    {"compound": "CSCC[C@H](NC(=O)CNC(=O)[C@@H](NC(=O)CNC(=O)[C@@H](NC(=O)CNC(=O)[C@H](CC(N)=O)NC(=O)[C@H](CCCN/C(N)=N/[N+](=O)[O-])NC(=O)[C@H](Cc1ccccc1)NC(=O)[C@@H](N)CO)C(C)C)[C@@H](C)O)C(=O)N[C@@H](CCCCN)C(=O)N[C@@H](CCCCN)C(=O)N[C@H](C(=O)N[C@@H](CO)C(=O)N[C@@H](Cc1ccccc1)C(=O)N[C@@H](CCC(N)=O)C(=O)N[C@@H](CCCNC(=N)N)C(=O)N[C@@H](C)C(=O)N[C@@H](CCCCN)C(=O)N[C@@H](CO)C(=O)O)[C@@H](C)O", "note": "(H-SF[Arg(NO2)]NGVGTGMKKTSFQRAKS-OH)", "values": [
      {"measurement": "EC50", "setting": "Neuropeptide S receptor", "value": 21.9, "unit": "nM"},
      {"measurement": "Emax", "setting": "[1]", "value": 288, "unit": "%"}
    ]},
    {"compound": "CC[C@H](NC(=O)[C@H](Cc1ccccc1)NC(=O)[C@@H](N)CO)C(=O)N[C@@H](CC(N)=O)C(=O)NCC(=O)N[C@H](C(=O)NCC(=O)N[C@H](C(=O)NCC(=O)N[C@@H](CCSC)C(=O)N[C@@H](CCCCN)C(=O)N[C@@H](CCCCN)C(=O)N[C@H](C(=O)N[C@@H](CO)C(=O)N[C@@H](Cc1ccccc1)C(=O)N[C@@H](CCC(N)=O)C(=O)N[C@@H](CCCNC(=N)N)C(=O)N[C@@H](C)C(=O)N[C@@H](CCCCN)C(=O)N[C@@H](CO)C(=O)O)[C@@H](C)O)[C@@H](C)O)C(C)C", "note": "(H-SF[Abu]NGVGTGMKKTSFQRAKS-OH)", "values": [
      {"measurement": "EC50", "setting": "Neuropeptide S receptor", "value": 513, "unit": "nM"},
      {"measurement": "Emax", "setting": "[1]", "value": 218, "unit": "%"}
    ]},
    {"compound": "CSCC[C@H](NC(=O)CNC(=O)[C@@H](NC(=O)CNC(=O)[C@@H](NC(=O)CNC(=O)[C@H](CC(N)=O)NC(=O)[C@H](CN)NC(=O)[C@H](Cc1ccccc1)NC(=O)[C@@H](N)CO)C(C)C)[C@@H](C)O)C(=O)N[C@@H](CCCCN)C(=O)N[C@@H](CCCCN)C(=O)N[C@H](C(=O)N[C@@H](CO)C(=O)N[C@@H](Cc1ccccc1)C(=O)N[C@@H](CCC(N)=O)C(=O)N[C@@H](CCCNC(=N)N)C(=O)N[C@@H](C)C(=O)N[C@@H](CCCCN)C(=O)N[C@@H](CO)C(=O)O)[C@@H](C)O", "note": "(H-SF[Dap]NGVGTGMKKTSFQRAKS-OH)", "values": [
      {"measurement": "EC50", "setting": "Neuropeptide S receptor", "value": 240, "unit": "nM"},
      {"measurement": "Emax", "setting": "[1]", "value": 196, "unit": "%"}
    ]},
    {"compound": "CSCC[C@H](NC(=O)CNC(=O)[C@@H](NC(=O)CNC(=O)[C@@H](NC(=O)CNC(=O)[C@H](CC(N)=O)NC(=O)[C@H](CCCCNC(=O)C(F)(F)F)NC(=O)[C@H](Cc1ccccc1)NC(=O)[C@@H](N)CO)C(C)C)[C@@H](C)O)C(=O)N[C@@H](CCCCN)C(=O)N[C@@H](CCCCN)C(=O)N[C@H](C(=O)N[C@@H](CO)C(=O)N[C@@H](Cc1ccccc1)C(=O)N[C@@H](CCC(N)=O)C(=O)N[C@@H](CCCNC(=N)N)C(=O)N[C@@H](C)C(=O)N[C@@H](CCCCN)C(=O)N[C@@H](CO)C(=O)O)[C@@H](C)O", "note": "(H-SFK(Tfa)NGVGTGMKKTSFQRAKS-OH)", "values": [
      {"measurement": "EC50", "setting": "Neuropeptide S receptor", "value": 85.1, "unit": "nM"},
      {"measurement": "Emax", "setting": "[1]", "value": 231, "unit": "%"}
    ]},
    {"compound": "H-SFCNGVGTGMKKTSFQRAKS-OH", "values": [
      {"measurement": "EC50", "setting": "Neuropeptide S receptor", "value": 372, "unit": "nM"},
      {"measurement": "Emax", "setting": "[1]", "value": 256, "unit": "%"}
    ]}
  ]
}
